Assay results published in patent US7329749B2, “Piperazinylcarbonylquinolines and -isoquinolines” (Merck Patent Gesellschaft, priority 2001, dated 2008).

How the values were obtained:
Assay type in all cases: binding
[1] = molecular target: T1, 5-HT2A receptor (Rattus norvegicus, UniProt P14842); assay: affinity to 5-HT2A receptors, [3H]ketanserine displacement (Example A1)
T1 construct: Frontal rat cortex is homogenised in ice-cold buffer; from tissue; host or cells: rat frontal cortex homogenate
Experimental: For in-vitro detection of the affinity to 5-HT2A receptors, the following test (Example A1), for example, can be used. The 5-HT2A receptors are exposed both to [^3H]ketanserine (a substance which is known for its affinity to the receptor) and also to the test compound. The decrease in the affinity of [^3H]ketanserine to the receptor is an indication of the affinity of the test substance to the 5-HT2A receptor. The detection is carried out analogously to the description by J. E. Leysen et al., Molecular Pharmacology, 1982, 21: 301-314, or as also described, for example, in EP 0320983.
Preparation of a suspension of 5-HT2A receptors: Frontal rat cortex is homogenised in ice-cold buffer. The homogenate is centrifuged at 4° C. and 50,000×for 10 minutes. The pellet is re-suspended in 2.5 ml of ice-cold tris buffer, made up with 10 ml of additional buffer and centrifuged as described. The pellet is then re-suspended in buffer and diluted to give a homogenate which comprises 60 mg of material/ml. 0.1 ml of the suspension, 100 μl of a 5 nM solution of [^3H]ketanserine, 100 μl of a solution of the test compound (concentration in the range from 10^−5 to 10^−10 mol per litre) are introduced into the incubation tubes and made up to 1 ml with buffer. The tubes are incubated at 37° C. for 15 minutes. […] The filters are analysed by liquid scintillation spectrometry in 8 ml of Triton-X scintillator liquid.

[2] = molecular target: 5-HT2C receptor (Homo sapiens, UniProt P28335); assay: IC50 at the 5-HT2C receptor
[3] = molecular target: T2, 5-HT1A receptor (Homo sapiens, UniProt P08908); assay: IC50 at the 5-HT1A receptor
T2 sequence (P08908 1-422): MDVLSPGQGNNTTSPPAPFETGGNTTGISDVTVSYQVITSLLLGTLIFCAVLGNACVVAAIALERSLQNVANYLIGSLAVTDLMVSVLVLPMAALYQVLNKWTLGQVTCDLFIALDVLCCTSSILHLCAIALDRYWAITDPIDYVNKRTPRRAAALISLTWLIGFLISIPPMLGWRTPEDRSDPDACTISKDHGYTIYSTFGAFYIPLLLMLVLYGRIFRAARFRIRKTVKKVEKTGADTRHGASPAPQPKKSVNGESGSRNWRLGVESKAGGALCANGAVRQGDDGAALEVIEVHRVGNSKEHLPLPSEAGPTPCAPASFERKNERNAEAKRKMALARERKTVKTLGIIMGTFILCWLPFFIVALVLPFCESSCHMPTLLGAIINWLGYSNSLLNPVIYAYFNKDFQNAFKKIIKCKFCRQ

[4] = molecular target: 5-HT1B receptor (Homo sapiens, UniProt P28222); assay: IC50 at the 5-HT1B receptor
[5] = molecular target: 5-HT1D receptor (Homo sapiens, UniProt P28221); assay: IC50 at the 5-HT1D receptor
[6] = molecular target: D2 receptor (Homo sapiens, UniProt P14416); assay: IC50 at the D2 receptor
Sequence of D2 receptor (P14416 whole entry): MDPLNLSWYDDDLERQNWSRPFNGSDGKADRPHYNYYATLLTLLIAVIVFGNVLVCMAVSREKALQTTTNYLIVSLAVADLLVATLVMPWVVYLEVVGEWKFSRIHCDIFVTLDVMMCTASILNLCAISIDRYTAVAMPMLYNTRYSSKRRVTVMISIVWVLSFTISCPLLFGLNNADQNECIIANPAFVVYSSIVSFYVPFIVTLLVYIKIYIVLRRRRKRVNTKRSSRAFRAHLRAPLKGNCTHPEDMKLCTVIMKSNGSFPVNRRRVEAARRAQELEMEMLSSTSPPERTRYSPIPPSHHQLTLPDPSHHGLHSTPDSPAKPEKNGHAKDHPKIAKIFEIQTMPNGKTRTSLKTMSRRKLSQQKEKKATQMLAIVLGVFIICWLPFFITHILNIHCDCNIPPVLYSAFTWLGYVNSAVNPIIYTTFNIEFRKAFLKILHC

T1 sequence (P14842 whole entry): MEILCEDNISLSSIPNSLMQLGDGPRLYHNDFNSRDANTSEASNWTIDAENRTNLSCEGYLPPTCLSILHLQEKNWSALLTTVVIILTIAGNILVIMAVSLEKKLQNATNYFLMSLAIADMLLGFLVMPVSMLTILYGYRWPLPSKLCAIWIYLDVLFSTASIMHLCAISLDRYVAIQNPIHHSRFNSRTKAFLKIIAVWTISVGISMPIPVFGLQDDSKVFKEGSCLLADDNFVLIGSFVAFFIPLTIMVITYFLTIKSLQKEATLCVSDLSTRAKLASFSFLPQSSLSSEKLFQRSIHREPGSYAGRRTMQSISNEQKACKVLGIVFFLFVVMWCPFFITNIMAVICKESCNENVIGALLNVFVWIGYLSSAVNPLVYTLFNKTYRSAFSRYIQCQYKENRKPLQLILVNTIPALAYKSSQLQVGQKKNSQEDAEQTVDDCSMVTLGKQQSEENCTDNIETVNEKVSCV
Sequence of 5-HT2C receptor (P28335 33-458): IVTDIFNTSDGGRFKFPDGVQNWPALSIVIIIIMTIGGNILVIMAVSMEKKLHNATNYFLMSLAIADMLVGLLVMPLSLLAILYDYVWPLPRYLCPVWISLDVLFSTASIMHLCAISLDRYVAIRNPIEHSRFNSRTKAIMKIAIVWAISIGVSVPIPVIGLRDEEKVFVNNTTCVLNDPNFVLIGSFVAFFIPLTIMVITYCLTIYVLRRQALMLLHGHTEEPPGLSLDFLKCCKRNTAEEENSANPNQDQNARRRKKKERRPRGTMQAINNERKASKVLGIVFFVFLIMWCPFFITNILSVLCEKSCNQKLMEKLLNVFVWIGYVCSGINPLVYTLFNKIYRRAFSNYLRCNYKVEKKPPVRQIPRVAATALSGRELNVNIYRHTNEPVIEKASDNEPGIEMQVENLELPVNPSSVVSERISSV
Sequence of 5-HT1B receptor (P28222 whole entry): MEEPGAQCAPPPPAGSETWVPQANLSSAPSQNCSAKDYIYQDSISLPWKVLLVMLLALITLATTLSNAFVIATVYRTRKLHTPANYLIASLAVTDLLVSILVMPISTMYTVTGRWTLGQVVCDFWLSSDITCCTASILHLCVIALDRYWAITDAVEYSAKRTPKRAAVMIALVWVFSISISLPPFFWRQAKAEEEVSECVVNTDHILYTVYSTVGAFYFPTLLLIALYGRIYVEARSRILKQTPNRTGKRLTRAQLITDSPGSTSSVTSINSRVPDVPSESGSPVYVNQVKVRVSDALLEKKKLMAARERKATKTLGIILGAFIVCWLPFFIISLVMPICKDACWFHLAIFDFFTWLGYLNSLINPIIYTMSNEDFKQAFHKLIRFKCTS
Sequence of 5-HT1D receptor (P28221 whole entry): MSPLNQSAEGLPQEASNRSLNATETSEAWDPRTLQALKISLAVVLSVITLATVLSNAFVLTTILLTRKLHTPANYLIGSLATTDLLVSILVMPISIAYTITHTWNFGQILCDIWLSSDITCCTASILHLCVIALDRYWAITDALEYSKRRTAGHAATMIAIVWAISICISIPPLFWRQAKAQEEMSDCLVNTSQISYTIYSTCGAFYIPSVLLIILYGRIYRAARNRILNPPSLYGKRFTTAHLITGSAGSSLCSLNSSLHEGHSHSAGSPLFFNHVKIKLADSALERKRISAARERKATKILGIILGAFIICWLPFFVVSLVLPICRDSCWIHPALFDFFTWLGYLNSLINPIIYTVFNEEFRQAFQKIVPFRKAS

For O=C(c1nccc2ccccc12)N1CCN(CCc2ccc(F)cc2)CC1 [Example 1, {4-[2-(4-fluorophenyl)ethyl]piperazin-1-yl}isoquinolin-1-ylmethanone], the IC50 [1] was 0.001 µM, the “factor by which the affinities differ” value ([1]; 5-HT2A versus 5-HT2C, 5-HT1A, 5-HT1B, 5-HT1D and D2 receptors) was “greater than 1000” and the IC50 [2] was over 1 µM. The IC50 [3] was over 1 µM, the IC50 [4] was over 1 µM and the IC50 [5] was over 1 µM. The IC50 [6] was over 1 µM.
